The source of these data is patent publication US4839374A, “4-((Bicyclic heterocyclyl)-methyl and -hetero)-piperidines” (Janssen Pharmaceutica, N.V., priority 1987, dated 1989).

The first assay relates to compound 48/80-induced lethality. Briefly: Protection of rats from compound 48/80-induced lethality. Particulars: Rattus norvegicus, 4 h, read-out: Compound 48/80 lethality test in rats ED50, s.c. or p.o. 1 h before compound 48/80 0.5 mg/kg i.v.; protection of 50% of animals, survival after 4 hours. The class given is in vivo, rats of an inbred Wistar strain. The procedure: Protection of rats from compound 48/80-induced lethality
The protection from compound 48/80-induced lethal circulatory collapse appears to be a simple way of evaluating quantitatively the antihistaminic activity of test compounds. Male rats of an inbred Wistar strain, weighing 240-260 g were used in the experiment. After overnight starvation the rats were transferred to conditioned laboratories (temp.=21±1° C., relative humidity=65+5%). The rats were treated subcutaneously or orally with a test compound or with the solvent (NaCl solution, 0.9%). […] Survival after 4 hours is therefore considered to be a safe criterion of a protective effect of drug administration. The ED50 -values of the compounds of formula (I) are listed in the first column of tables 1 to 4. Said ED50 -values are the values in mg/kg body weight at which the tested compounds protect 50% of the tested animals against compound 48/80-induced lethality. The compounds of formula (I) and the pharmaceutically acceptable acid addition salts thereof are also potent serotonin-antagonists. The potency of the subject compounds as serotonin-antagonists is clearly evidenced by the results obtained in the following tests wherein the antagonistic activity of the subject compounds on the effect of serotonin is examined.
In the case of `Fc1ccc(Cn2c(CC3CCN(CCNc4ccc(Cl)nn4)CC3)nc3ccccc32)cc1` [Compound 378, 6-chloro-N-[2-[4-[[1-[(4-fluorophenyl)methyl]-1H-benzimidazol-2-yl]methyl]-1-piperidinyl]ethyl]-3-pyridazinamine], the ED50 came to 0.04 mg/kg. For the molecule `Cc1nc2ccccn2c(=O)c1CCN1CCC(Cc2nc3ccccc3n2Cc2cccs2)CC1` [Compound 257], the ED50 came to 0.02 mg/kg. For the molecule `O=c1oc2ccccc2cc1CCN1CCC(Cc2nc3ccccc3n2Cc2cccs2)CC1` [Compound 259], the ED50 worked out at 0.08 mg/kg.

For `Cc1nc2ccccn2c(=O)c1CCN1CCC(Cc2nc3ccncc3n2Cc2ccc(F)cc2)CC1` [Compound 270], the ED50 was 0.08 mg/kg. Turning to `COc1ccc(CCN2CCC(Cc3nc4ccccc4n3Cc3cnccn3)CC2)cc1` [Compound 524, 2-[[1-[2-(4-methoxyphenyl)ethyl]-4-piperidinyl]methyl]-1-(2-pyrazinylmethyl)-1H-benzimidazole], the ED50 came out at 0.16 mg/kg. On to `Cc1ccc(Cn2c(CC3CCN(C)CC3)nc3ccccc32)cc1` [Compound 81, 1-[(4-methylphenyl)methyl]-2-[(1-methyl-4-piperidinyl)methyl]-1H-benzimidazole], for which the ED50 is 0.08 mg/kg. Regarding `Nc1ccccc1C(=O)NCCCCN1CCC(Cc2nc3ccccc3n2Cc2ccco2)CC1` [Compound 472, 2-amino-N-[4-[4-[[1-(2-furanylmethyl)-1H-benzimidazol-2-yl]methyl]-1-piperidinyl]butyl]benzamide], the ED50 was determined as 0.04 mg/kg. On the same count and under the same terms, next, `CN(CCN1CCC(Cc2nc3ccccc3n2Cc2ccc(F)cc2)CC1)Cc1ccccc1` [Compound 512]: 0.08 mg/kg. Still for that read-out and setting: next, `CNc1ccccc1C(=O)NCCN1CCC(Cc2nc3cccnc3n2Cc2ccc(F)cc2)CC1` [Compound 470]: 0.04 mg/kg. As for `Cc1nc2ccccn2c(=O)c1CCN1CCC(Cc2nc3ccccc3n2Cc2cscn2)CC1` [Compound 261], the ED50 was 0.08 mg/kg. Consider `Fc1ccc(Cn2c(CC3CCN(Cc4cn5cccnc5n4)CC3)nc3ccccc32)cc1` [Compound 183], for which the ED50 was found to be 0.01 mg/kg. Regarding `CC(C)N1CCC(Cc2nc3ccccc3n2Cc2ccc(F)cc2)CC1` [Compound 83], the ED50 was 0.01 mg/kg. For `Fc1ccc(Cn2c(CC3CCNCC3)nc3cccnc32)cc1` [Compound 45, 3-[(4-fluorophenyl)methyl]-2-(4-piperidinylmethyl)-3H-imidazo[4,5-b]-pyridine], the ED50 turned out to be 0.04 mg/kg. Take `Cn1ccnc1NCCN1CCC(Cc2nc3ccccc3n2Cc2ccc(F)cc2)CC1` [Compound 452, 4-[[1-[(4-fluorophenyl)methyl]-1H-benzimidazol-2-yl]methyl]-N-(1-methyl-1H-imidazol-2-yl)-1-piperidineethanamine]: the ED50 is 0.16 mg/kg.

For the molecule `Fc1ccc(Cn2c(CC3CCN(Cc4ccccc4)CC3)nc3ncccc32)cc1` [Compound 23, 1-[(4-fluorophenyl)methyl]-2-[[1-(phenylmethyl)-4-piperidinyl]methyl]-1H-imidazo[4,5-b]pyridine], the ED50 was determined as 0.08 mg/kg. For the molecule `O=C(NCCN1CCC(Cc2nc3ccccc3n2Cc2ccc(F)cc2)CC1)c1cc2ccccc2oc1=O` [Compound 445, N-[2-[4-[[1-[(4-fluorophenyl)methyl]-1H-benzimidazol-2-yl]methyl]-1-piperidinyl]ethyl]-2-oxo-2H-1-benzopyran-3-carboxamide], the ED50 is 0.16 mg/kg.

With `CCOC(=O)NCCN1CCC(Cc2nc3ccccc3n2Cc2cscn2)CC1` [Compound 248], the ED50 was found to be 0.04 mg/kg. Turning to `Fc1ccc(Cn2c(OC3CCNCC3)nc3ccccc32)cc1` [Compound 66, 1-[(4-fluorophenyl)methyl]-2-(4-piperidinyloxy)-1H-benzimidazole], the ED50 stood at 0.02 mg/kg. In the case of `Cc1nc2n(c(=O)c1CCN1CCC(Cc3nc4ccccc4n3Cc3ccco3)CC1)CCCS2` [Compound 166], the ED50 was found to be 0.04 mg/kg.

Still in this assay, the particulars now being: s.c. or p.o. 1 h before compound 48/80 0.5 mg/kg i.v.; protection of 50% of animals, survival after 4 hours; 0.5 mg/kg, 240 min.
`Cc1nc2n(c(=O)c1CCN1CCC(Cc3nc4ccccc4n3Cc3ccco3)CC1)CCS2` [Compound 167]: the “Compound 48/80 lethality test in rats ED50” value came out at 0.01 mg/kg body weight.
